One experiment has as its system A549/T cells. The experiment can be described thus: SRB cell cytotoxicity assay in A549/T. The class given is cell-based, human. The conditions noted are these: for IC50: Homo sapiens.
Experiment [1] relates to A2780/T cells. The experiment can be described thus: SRB cell cytotoxicity assay in A2780/T. As to conditions: for fold reversal / IC50: A2780/T; for IC50: read-out: IC50 ± SD.
Description: Sulphorhodamine B (SRB) assays were carried out as previously described to assess cell density, based on sensitive measure of total cellular protein, which performed similarly compared with other proliferation assays such as MTT assay. Briefly, cells were seeded into flat bottomed 96-well plates at an initial density of 7.5×10^3 per well before treatment. […] After removing the medium, cells were fixed in 10% trichloroacetic acid for 1 h at 4° C. and then washed with water five times. 0.4% SRB dissolved in 1% v/v acetic acid was added and incubated 30 mm for staining. The cells were quickly washed with 1% acetic acid and left to dry overnight. The protein bound SRB was solubilized by adding 200 μl 10 mM Tris buffer per well and measured at wavelengths 490 nm using a plate reader (Spectra MAX 250; Molecular Devices, Sunnyvale, Calif.).
Experiment [2] concerns A2780/T cells. The experiment can be described thus: Intracellular accumulation of DOX and Flutax-2 in A2780/T. As to conditions: 8 h, 7.53 μM tangeretin or 20 μM QND. The format is cell-based, human. As for the experimental part: cells (5×10^6) were cultured on the cover glass (ISO LAB 20×20 mm). […] After treatment, cells were fixed in 4 wt % formaldehyde (Sigma-Aldrich). Nuclear DNA was stained with 1 μg/mL blue-fluorescent DAPI (1 mg/mL in H2O stock solution; Invitrogen D1306). One drop of fluorescent preservation solution (fluorsave reagent, CALBIOCHEM) was added before observation. Imaging was carried out for comparing the intracellular accumulation of DOX and flutax-2 with a Fluorescence Microscopy (Leica DM2500, Leica, Germany). […] Cells were detached, re-suspended in 500 μl of PBS after washed twice with cold PBS, and analyzed by flow cytometry (BD FACS Aria, BD Biosciences, San Jose, Calif.). Excitation and emission wavelengths (nm) used for DOX and flutax-2 were as follows: 480 to 585; and 496 to 524.

The test system of a further experiment is A2780 cells. The experiment can be described thus: Cell cycle analysis by flow cytometry in A2780. The class given is cell-based, human. The conditions noted are these: A2780, PTX 0.01 μM. As for the experimental part:
(§1) A2780/T cells were harvested after 24-hours, 48-hour, or 72-hour treatment and washed twice with ice-cold PBS. The cells were fixed and permeabilized with 70% ice-cold ethanol overnight at 4° C. or −20° C. for 2 h. After one additional wash in PBS, cells were stained with a staining solution containing PI ([…]) and RNase A (250 μg/ml) for […] at room temperature. They were then pelleted, washed and suspended in PBS to a final concentration of 1×10^6/ml and analyzed by flow cytometry (BD FACS Aria, BD Biosciences, San Jose, Calif.).

For experiment [3], the system named is A2780/T cells. The experiment can be described thus: Cell cycle analysis by flow cytometry in A2780/T. As to conditions: 48 h. The class given is cell-based, human. As for the experimental part: as §1
In general terms: In flow cytometry, cells or beads pass a laser one at a time.

For experiment [4], the system named is A2780/T cells. The experiment can be described thus: Combination index, Chou-Talalay method (CalcuSyn). The format is cell-based, human. As for the experimental part: Combination index (CI) was calculated to quantitatively depict synergistic ([…], additive (CI=1), or antagonistic (CI>1) effect. With the use of CalcuSyn software v. 2.1 (Bio-soft), synergy is further refined as synergism (combination index=0.3-0.7), strong synergism (combination index=0.1-0.3), and very strong synergism (combination index<0.1).

The next experiment deals with p53. The experiment can be described thus: Western blot of p53 expression. The format is cell-based, human. The conditions noted are these: PTX in combination with tangeretin. As for the experimental part: The total cellular samples were harvested and rinsed twice with ice-cold PBS buffer. Cell extracts were lysed in RIPA buffer (50 mM Tris (pH 7.4), 150 mM NaCl, 1% Triton X-100, 1% sodium deoxycholate, 0.1% SDS, sodium orthovanadate, sodium fluoride and EDTA) containing protease inhibitor cocktails (Roche Life Science, USA). Protein concentration was determined using the BCA protein assay kit. Equal amounts of cell lysates were resolved by SDS-PAGE and subsequently electrophoretically transferred onto PVDF membranes (Millipore, Darmstadt, Germany). After blocking in tris-buffered saline containing 0.1% of Tween20 (TBST) with 5% (w/v) skim milk (Nestle Carnation, New Zealand) for 2 h at room temperature, the membranes were incubated with primary and secondary antibodies and subsequently visualized with an enhanced chemiluminescence detection kit (Thermo Scientific™ SuperSignal™ West Pico Chemiluminescent Substrate, USA). β-Actin was used as the loading control for the experimental data analysis.
(A western blot detects proteins with antibodies after separation by electrophoresis.)

Experiment [5] relates to A2780/T cells. The experiment can be described thus: Apoptosis by Annexin-V/PI double staining. The class given is cell-based, human. As to conditions: 7.53 μM tangeretin or 0.94 μM PTX alone. As for the experimental part:
After treatment, 1×10^6 cells were collected, washed and suspended in 100 μl of binding buffer (10 mM N-2-hydroxyethylpiperazine-N,-2-ethanesulfonic acid/NaOH, 140 mM NaCl, 2.5 mM CaCl2, pH 7.4). Apoptotic cells were identified by double supravital staining with 5 μl recombinant FITC (fluorescein isothiocyanate)-conjugated Annexin-V and 5 μl PI (50 μg/ml). The cells were stained for […] at room temperature in the dark, and analyzed by fluorescence-activated cell sorting cater-plus flow cytometry. Data acquisition and analysis were performed in BD FACS Aria with FlowJo software.

Setting [6] is: A549, 48 h, A549/T, 48 h, drug alone, read-out: IC50 ± SD.
[7] abbreviates: A549, A549/T, +0.84 μM TG, read-out: IC50 ± SD.
Setting [8] is: A549, A549/T, +5.21 μM TG, read-out: IC50 ± SD.
[9] abbreviates: A549, A549/T, +7.53 μM TG, read-out: IC50 ± SD.
[10] abbreviates: 0.94 μM PTX with 7.53 μM tangeretin.
[11] abbreviates: 0.94 μM PTX, absence of tangeretin.

Read-outs that look alike come from different tables or passages of the source.

Regarding `CC(=O)O[C@@]12CO[C@@H]1C[C@H](O)[C@@]1(C)C(=O)[C@H](O)C3=C(C)[C@@H](OC(=O)[C@H](O)[C@@H](NC(=O)OC(C)(C)C)c4ccccc4)C[C@@](O)([C@@H](OC(=O)c4ccccc4)[C@H]21)C3(C)C` [Docetaxel, docetaxel], the fold reversal in the experiment on A549/T cells (A549/T, +0.84 μM TG) is 1.58; in the experiment with A549/T cells (A549/T, +5.21 μM TG) it was 3.82; with A549/T cells (A549/T, +7.53 μM TG), 12.07; in the experiment with A549/T cells (A549/T, drug alone) it was 1.00; in the experiment with A2780/T cells [1] (+0.84 μM TG) it was 1.99; with A2780/T cells [1] (+5.21 μM TG) it was 7.95. The fold reversal in the experiment with A2780/T cells [1] (+7.53 μM TG) is 33.66; in the experiment with A2780/T cells [1] (drug alone), 1.00. The IC50 is 12.7 ± 2.06 µM in the experiment on A549/T cells (setting [6]); 7.8 ± 1.29 µM in the experiment with A549/T cells (setting [7]); 3.36 ± 0.28 µM in the experiment on A549/T cells (setting [8]); 1.06 ± 0.08 µM in the experiment with A549/T cells (setting [9]); 28.4 ± 4.59 µM with A2780/T cells [1] (48 h, drug alone); 14.2 ± 2.31 µM in the experiment with A2780/T cells [1] (+0.84 μM TG). In addition, the IC50 with A2780/T cells [1] (+5.21 μM TG) is 3.57 ± 0.58 µM; with A2780/T cells [1] (+7.53 μM TG), 0.84 ± 0.07 µM.

Consider `C=C[C@H]1C[N@@]2CC[C@H]1C[C@@H]2[C@@H](O)c1ccnc2ccc(OC)cc12` [QND, quinidine], for which the “intracellular accumulations of DOX and Flutax-2” value with A2780/T cells [2] was “higher than that of untreated A2780/T”.

Consider `CC(=O)O[C@H]1C(=O)[C@@]2(C)[C@H]([C@H](OC(=O)c3ccccc3)[C@]3(O)C[C@H](OC(=O)[C@H](O)[C@@H](NC(=O)c4ccccc4)c4ccccc4)C(C)=C1C3(C)C)[C@]1(OC(C)=O)CO[C@@H]1C[C@@H]2O` [Paclitaxel, paclitaxel], for which the fold reversal with A549/T cells (A549/T, +0.84 μM TG) was determined as 2.67; with A549/T cells (A549/T, +2.51 μM TG), 9.52; in the experiment on A549/T cells (A549/T, +5.21 μM TG), 9.52; with A549/T cells (A549/T, +7.53 μM TG), 80.05; in the experiment with A549/T cells (A549/T, drug alone), 1.00; in the experiment with A2780/T cells [1] (+0.84 μM TG) it was 1.59. Also, the fold reversal in the experiment with A2780/T cells [1] (+5.21 μM TG) is given as 5.66; with A2780/T cells [1] (+7.53 μM TG), 18.88; in the experiment on A2780/T cells [1] (drug alone), 1.00. Besides, the IC50 was 2.53 ± 0.41 µM in the experiment with A549/T cells (setting [6]); 1.03 ± 0.33 µM with A549/T cells (setting [7]); 0.27 ± 0.02 µM in the experiment on A549/T cells (setting [8]); 0.03 ± 0.01 µM with A549/T cells (setting [9]); 2.51 µM in the experiment with A2780/T cells [1] (48 h, drug alone); 1.58 ± 0.04 µM in the experiment with A2780/T cells [1] (+0.84 μM TG). Besides, the results for the IC50 in the experiment with A2780/T cells [1] (+5.21 μM TG) and in the experiment with A2780/T cells [1] (+7.53 μM TG) were 0.45 ± 0.07 µM and 0.14 ± 0.02 µM, respectively. In addition, the “mean IC50 in A2780/T greater than that of A2780 (degree of resistance)” value in the experiment on A2780/T cells [1] (A2780/T versus parental A2780) was found to be 501 fold. Besides, the G1 phase content in the experiment on A2780 cells (24 hours) came out at 30.95%; in the experiment with A2780 cells (48 hours) it was 14.13%; with A2780 cells (72 hours) it was 13.07%. Also, the G2-M content with A2780 cells (24 hours) worked out at 52.63%; with A2780 cells (48 hours) it was 62.33%; with A2780 cells (72 hours) it was 74.20%. The G1 phase cells in the experiment on A2780/T cells [3] (setting [10]) is given as 13.87%; in the experiment on A2780/T cells [3] (setting [11]) it was 68.30%. Besides, the G2 phase cells was found to be 72.37% in the experiment on A2780/T cells [3] (setting [10]) and 18.87% in the experiment with A2780/T cells [3] (setting [11]). Also, the EC50 in the experiment with A2780/T cells [4] (Homo sapiens, CalcuSyn simulation, alone or in combination, read-out: Dose PTX at Fa 0.5 (ED50)) was 3.61 µM. In addition, the “decrease for the ED50 dose of PTX” value in the experiment on A2780/T cells [4] (combination with tangeretin versus PTX alone) was 18 fold. The “accumulation of p53” value in the experiment on p53 was “accumulation of p53”. For the same compound, the “apoptosis induction, single treatment” value in the experiment with A2780/T cells [5] is recorded as “did not show apoptosis induction”.

For `COc1cccc2c1C(=O)c1c(O)c3c(c(O)c1C2=O)C[C@@](O)(C(C)=O)C[C@@H]3O[C@H]1C[C@H](N)[C@H](O)[C@H](C)O1` [Daunorubicin, daunorubicin], the fold reversal in the experiment on A549/T cells (A549/T, +0.84 μM TG) was found to be 1.41; in the experiment on A549/T cells (A549/T, +5.21 μM TG), 2.25; in the experiment with A549/T cells (A549/T, +7.53 μM TG), 6.36; with A549/T cells (A549/T, drug alone) it was 1.00; in the experiment with A2780/T cells [1] (+0.84 μM TG) it was 1.34; with A2780/T cells [1] (+5.21 μM TG), 2.25. Moreover, the fold reversal was 8.03 with A2780/T cells [1] (+7.53 μM TG) and 1.00 with A2780/T cells [1] (drug alone). The IC50 with A549/T cells (A549, 48 h, read-out: IC50 ± SD, A549/T, 48 h, drug alone) was 6.7 ± 0.54 µM; with A549/T cells (A549, read-out: IC50 ± SD, A549/T, +0.84 μM TG) it was 4.74 ± 0.38 µM; with A549/T cells (A549, read-out: IC50 ± SD, A549/T, +5.21 μM TG), 2.99 ± 0.24 µM; with A549/T cells (A549, read-out: IC50 ± SD, A549/T, +7.53 μM TG), 1.06 ± 0.08 µM; in the experiment with A2780/T cells [1] (48 h, drug alone), 7.51 ± 0.61 µM; with A2780/T cells [1] (+0.84 μM TG) it was 5.66 ± 0.92 µM. Further, the IC50 worked out at 3.4 ± 0.82 µM in the experiment on A2780/T cells [1] (+5.21 μM TG) and 0.96 ± 0.23 µM in the experiment with A2780/T cells [1] (+7.53 μM TG).

As to `O=c1[nH]cc(F)c(=O)[nH]1` [5-Fluorouracil, 5-fluorouracil], the fold reversal with A549/T cells (A549/T, +0.83 μM TG) worked out at 1.34; in the experiment on A549/T cells (A549/T, +2.51 μM TG), 2.12; in the experiment with A549/T cells (A549/T, +7.53 μM TG) it was 6.05; with A549/T cells (A549/T, drug alone), 1.00; with A2780/T cells [1] (+0.83 μM TG), 1.19; in the experiment with A2780/T cells [1] (+2.51 μM TG), 2.12. Further, the fold reversal in the experiment with A2780/T cells [1] (+7.53 μM TG) turned out to be 6.31; in the experiment on A2780/T cells [1] (drug alone) it was 1.00. Also, the IC50 in the experiment on A549/T cells (setting [6]) worked out at 142 ± 23.1 µM; in the experiment with A549/T cells (A549, A549/T, +0.83 μM TG, read-out: IC50 ± SD), 106 ± 8.63 µM; in the experiment on A549/T cells (A549, A549/T, +2.51 μM TG, read-out: IC50 ± SD), 67 ± 5.44 µM; in the experiment with A549/T cells (setting [9]) it was 23.8 ± 1.93 µM; with A2780/T cells [1] (48 h, drug alone) it was 179 ± 29 µM; in the experiment with A2780/T cells [1] (+0.83 μM TG), 152 ± 36.7 µM. The IC50 in the experiment on A2780/T cells [1] (+2.51 μM TG) stood at 84.3 ± 6.56 µM; in the experiment with A2780/T cells [1] (+7.53 μM TG), 28.4 ± 4.6 µM.

The record behind these values is patent US9808439B2 (Macau University of Science and Technology, priority 2015, dated 2017).
